Several values for one entry are separate records, joined by “and”; a condition that tells them apart may be missing. Equal values may be shown once. Entries after “also recorded” stand apart in the source; their conditions may differ.
System: aldosterone + salt treated uninephrectomized rats
Test: Assay C, further aldosterone infusion study: radiotelemetrized arterial (systolic) blood pressure
Assay type: in vivo, Male Sprague-Dawley rats
Conditions: for Systolic Blood Pressure (mmHg): mean ± SEM of values every 5 min over 24-hour period
Procedure: Assay C: Further In Vivo Aldosterone Infusion Study
The procedure of Assay B was expanded upon in a further study. […] Myocardial tissue from animals in each treatment group was examined after 7, 14, or 30 days of treatment.
Male Sprague-Dawley rats, weighing 230 to 250 g, (Harlan Sprague-Dawley Industries, Indianapolis, IN) were housed in a room 12-hours light/12-hours dark daily cycle at an ambient temperature of 22±1° C. (n=96). Animals were allowed one week to adjust after arrival and had free access to TEKLAD 22/5 rodent diet (Harlan TEKLAD, Madison, Wis.) and tap water until the initiation of the experiment.
Potassium chloride supplementation was added to the saline solution in order to prevent the potential hypokalemia associated with aldosterone excess.
At the time of the surgery, an Alzet 2002 osmotic minipump (Alza Corp., Palo Alto, Calif.) containing either vehicle (9% ethanol/87% propylene glycol/4% dH2O) or 1.0 mg/mL d-aldosterone (Sigma Chemical, St. Louis, Mo.) was inserted subcutaneously at the nape of the neck. Aldosterone was administered at a dose of 0.75 µg/hour. […] Animals were sacrificed from each group (n=8-13) after 7, 14, or 30 days of treatment.
Animals to be sacrificed after 7 or 14 days of treatment were uninephrectomized and implanted with an Alzet minipump. Animals treated for 30 days were uninephrectomized, fitted for Alzet minipumps, and implanted with radio telemetry units (model #TA11PA-C40, Data Sciences Inc., St. Paul, Minn.) according to the following procedure. Animals were anesthetized with 5% isoflurane (SOLVAY Animal Health Inc., Mendota Heights, Minn.), which was delivered in O2 using a VMS anesthesia instrument (Matrix Medical, Inc., Orchard Park, N.Y.). Anesthesia was maintained with 1-2% isoflurane throughout the surgical procedure. The surgery site was clipped, scrubbed with nolvasan, and sprayed with betadine. A rostral-caudal incision was made through the skin from the base of the rib cage to the pubic region using a #11 scalpel blade. A second incision was made through the muscles of the abdominal wall to expose the peritoneal cavity. The […], renal artery and vein of the left kidney were isolated, tied off with 4-0 silk, and the kidney excised and discarded. Organs were carefully displaced with tissue retractors in order to expose the abdominal aorta. A 1.5 cm segment just rostral to the bifurcation of the abdominal aorta into the iliac arteries was cleared of excessive connective tissue and 4-0 silk was used to make an anchor adjacent to the aorta. A microvascular clip was then placed at both ends of the cleaned region to stop excessive blood flow. Using a bent, 21 gauge needle, the abdominal aorta was penetrated. The cannula of the radio telemetry unit was inserted and stabilized in the aorta using the 4-0 silk anchor. Organs were repositioned and the telemetry unit was placed over the organs. Using a non-interrupted suture pattern with 4-0 silk, the abdominal wall was closed, and the skin was subsequently closed using a 4-0 silk in an interrupted suture pattern. Animals were injected around the sutures with 100 μL of the anesthetic Marcaine HCl (Sanofi Winthrop Pharmaceuticals, New York, N.Y.) and given an injection (i.m.) of the antibiotic Mandol (Eli Lilly & Co., Indianapolis, Ind.). Post-operative care included monitoring the animals on a heating pad during recovery from anesthesia until sternal recumbency was reestablished. Animals were monitored daily for signs of distress and infection at the surgical site. Animals displaying continued discomfort after surgery were treated with 0.1-0.5 mg/kg, s.c. Buphrenorphine (Rickett & Colman Pharmaceuticals, Inc. Richmond, Va.). Animals were then placed on tap water and TEKLAD 22/5 rodent diet (Harlan TEKLAD, Madison, Wis.).
Radiotelemetrized arterial blood pressure was calculated with the […]

SMILES: C[C@]12CCC(=O)C=C1CC[C@@H]1[C@@H]2[C@@H](O)C[C@]2(C=O)[C@@H](C(=O)CO)CC[C@@H]12 [Aldosterone]
- Systolic Blood Pressure (Day 3, individual rats, 30-day protocol, listed as Aldosterone + salt): 116 mmHg and 152 mmHg and 115 mmHg and 127 mmHg and 143 mmHg and 122 mmHg and 124 mmHg and 159 mmHg
- Systolic Blood Pressure (mmHg) (Day 3): 132 ± 6 mmHg
- Systolic Blood Pressure (Day 4, individual rats, 30-day protocol, listed as Aldosterone + salt): 120 mmHg and 149 mmHg and 122 mmHg and 134 mmHg and 129 mmHg and 135 mmHg and 125 mmHg and 152 mmHg
- Systolic Blood Pressure (mmHg) (Day 4): 133 ± 4 mmHg
- Systolic Blood Pressure (Day 5, individual rats, 30-day protocol, listed as Aldosterone + salt): 126 mmHg and 158 mmHg and 124 mmHg and 142 mmHg and 129 mmHg and 137 mmHg and 128 mmHg and 151 mmHg
- Systolic Blood Pressure (mmHg) (Day 5): 137 ± 4 mmHg
- Systolic Blood Pressure (Day 6, individual rats, 30-day protocol, listed as Aldosterone + salt): 132 mmHg and 170 mmHg and 136 mmHg and 157 mmHg and 144 mmHg and 149 mmHg and 135 mmHg and 158 mmHg
- Systolic Blood Pressure (mmHg) (Day 6): 148 ± 5 mmHg
- Systolic Blood Pressure (Day 7, individual rats, 30-day protocol, listed as Aldosterone + salt): 140 mmHg and 179 mmHg and 139 mmHg and 165 mmHg (2×) and 153 mmHg and 154 mmHg and 145 mmHg
- Systolic Blood Pressure (mmHg) (Day 7): 155 ± 5 mmHg
- Systolic Blood Pressure (Day 8, individual rats, 30-day protocol, listed as Aldosterone + salt): 145 mmHg and 182 mmHg and 143 mmHg and 160 mmHg and 158 mmHg and 154 mmHg and 146 mmHg and 163 mmHg
- Systolic Blood Pressure (mmHg) (Day 8): 156 ± 4 mmHg
- Systolic Blood Pressure (Day 9, individual rats, 30-day protocol, listed as Aldosterone + salt): 150 mmHg and 191 mmHg and 148 mmHg and 172 mmHg (2×) and 159 mmHg and 151 mmHg and 169 mmHg
- Systolic Blood Pressure (mmHg) (Day 9): 164 ± 5 mmHg
- Systolic Blood Pressure (Day 10, individual rats, 30-day protocol, listed as Aldosterone + salt): 156 mmHg and 196 mmHg and 149 mmHg and 175 mmHg (2×) and 165 mmHg and 151 mmHg and 172 mmHg
- Systolic Blood Pressure (mmHg) (Day 10): 168 ± 6 mmHg
- Systolic Blood Pressure (Day 11, individual rats, 30-day protocol, listed as Aldosterone + salt): 154 mmHg and 201 mmHg and 155 mmHg (2×) and 178 mmHg and 181 mmHg and 163 mmHg and 175 mmHg
- Systolic Blood Pressure (mmHg) (Day 11): 171 ± 6 mmHg
- Systolic Blood Pressure (Day 12, individual rats, 30-day protocol, listed as Aldosterone + salt): 159 mmHg and 207 mmHg and 161 mmHg and 190 mmHg (2×) and 186 mmHg and 170 mmHg and 163 mmHg
- Systolic Blood Pressure (mmHg) (Day 12): 178 ± 6 mmHg
- Systolic Blood Pressure (Day 13, individual rats, 30-day protocol, listed as Aldosterone + salt): 161 mmHg and 210 mmHg and 166 mmHg (2×) and 196 mmHg and 191 mmHg and 172 mmHg and 194 mmHg
- Systolic Blood Pressure (mmHg) (Day 13): 182 ± 6 mmHg
- Systolic Blood Pressure (Day 14, individual rats, 30-day protocol, listed as Aldosterone + salt): 164 mmHg and 208 mmHg and 170 mmHg and 204 mmHg and 192 mmHg (2×) and 181 mmHg and 159 mmHg and 172 mmHg
- Systolic Blood Pressure (mmHg) (Day 14): 182 ± 6 mmHg
- Systolic Blood Pressure (Day 15, individual rats, 30-day protocol, listed as Aldosterone + salt): 171 mmHg
- Systolic Blood Pressure (mmHg) (Day 15): 181 ± 5 mmHg
- Systolic Blood Pressure (mmHg) (Day 16): 187 ± 6 mmHg
- Systolic Blood Pressure (mmHg) (Day 17): 195 ± 7 mmHg
- Systolic Blood Pressure (mmHg) (Day 18): 196 ± 6 mmHg
- Systolic Blood Pressure (mmHg) (Day 19): 200 ± 6 mmHg
- Systolic Blood Pressure (mmHg) (Day 20): 203 ± 5 mmHg
- Systolic Blood Pressure (mmHg) (Day 21): 208 ± 4 mmHg
- Systolic Blood Pressure (mmHg) (Day 22): 209 ± 4 mmHg
- Systolic Blood Pressure (mmHg) (Day 23): 208 ± 4 mmHg
- Systolic Blood Pressure (mmHg) (Day 24): 210 ± 3 mmHg
- Systolic Blood Pressure (mmHg) (Day 25): 210 ± 4 mmHg
- Systolic Blood Pressure (mmHg) (Day 26): 210 ± 3 mmHg
- Systolic Blood Pressure (aldosterone + salt, uninephrectomized rats, up to 30 days, eplerenone 100 mg/kg/day): induced severe hypertension; also recorded: progressive increase in blood pressure with time

Reference: patent US6716829B2, “Aldosterone antagonist and cyclooxygenase-2 inhibitor combination therapy to prevent or treat inflammation-related cardiovascular disorders” (Pharmacia Corporation, priority 2000, dated 2004)
